Patent US5126258A (priority 1988, dated 1992)
Values after ≈ are worked out from the molar mass of the structure shown. Read-outs that look alike come from different tables or passages of the source.

How the values were obtained:
[1] = Metal chelate formation constants, potentiometric titration; assay type: physicochemical; conditions: titrimetric analysis, estimated; read-out: formation constants of 1:1 chelates with divalent metal ions
Description: Such a possibility was investigated using a dipicolinic acid halide to derivatize the ortho aminomethyl group of a phenolic structure (see Compounds 3 and 4 of FIG. 2). The dealkylation of the phosphonyl and acyl esters of this adduct exposes the potential ligands for the formation of a metal chelate. The intrinsic stability of complexes of this ligand, however, determined with divalent transition metals such as cobalt, zinc and copper, are probably too low to expect these chelates to maintain their integrity in the immunization process. In fact, the formation constants of 1:1 chelates of Compound 3 with the divalent metal ions are in the range of 10^4 -10^5 M^-1 as estimated by titrimetric analysis.
Determination of pKa and stability constants K:
All determinations of pKa and stability constants (K) are performed according to the method of Martell. This method consisted of potentiometric titration of the particular compound (at a concentration of about 1.4 mM) in the absence of and in the presence of the metal ion being investigated. The ionic strength was maintained constant using 0.1M NaClO4 as a supporting electrolyte. All measurements were carried out under nitrogen at 25 degrees C plus or minus 0.01 degrees C.

[2] = biological target: monoclonal antibody P3 6D4; experiment: Kinetics and inhibition of catalytic ester hydrolysis by monoclonal antibody P3 6D4, spectrophotometric at 245 nm; assay type: biochemical, mouse; conditions: for Ki / kcat/kuncat: pH 8.0; for Ki: figure = Ki × 10^7, read-out: Ki; for Km / Vmax / kcat: 50 mM phosphate pH 8.0, 25 C; for Km / Vmax: 100 nM IgG; for Km: figure = Km × 10^6; for Vmax: figure = Vmax × 10^9; for kcat: printed figure = kcat × 10^2; for acceleration above the background rate: pH 8.0, corrected for background hydrolysis rate
Description: FIG. 4 illustrates a Lineweaver-Burk plot for the hydrolysis of Compound 7 by anti-Compound 4 monoclonal antibody from hybridoma P3 6D4. Velocities were determined spectrophotometrically by measuring initial rates during the first linear portion of the reaction as described with reference to Table 2. The substrate concentrations were corrected for amounts consumed during initial equilibration. ( ) No inhibitor present. ( ) Inhibited by 50 nM phosphonate (Compound 3). ( ) Inhibited by 100 nM phosphonate (Compound 3).
(§1) In particular, an exemplary monoclonal receptor was produced by the standard hybridoma technology of Kohler et al., Nature, 256, 495 (1975). Specifically, female 129G1X^+ mice were immunized by intraperitoneal injection with an inoculum of 100 micrograms of conjugate (e.g., Compound 4i bound to KLH) in 300 microliters of a 1:1 mixture of phosphate buffered saline (PBS) pH 7.4 and complete Freund's adjuvant. Two weeks later, the mice were again injected in a like manner with 50 micrograms of the foregoing conjugate in 300 microliters of a 1:1 mixture of PBS (pH 7.4) and 10 mg/ml alum. After an additional eight weeks, the mice were immunized intravenously with 50 micrograms of the conjugate in 200 microliters of PBS (pH 7.4). The spleens were removed from the mice 4 days later, and the spleen cells were fused to myeloma cells.
Reaction kinetics were measured spectrophotometrically by following the absorption change at 245 nanometers. […] Kinetic parameters obtained with these substrates are shown in Table 2 along with the inhibition constants obtained with phosphonate (Compound 3). Under these conditions, the acceleration above the background rate is about 960-fold for Compound 7 and about 200-fold for Compound 8 (corrected for the background hydrolysis rate).
*The kinetic parameters shown in Table 2 are for the hydrolysis of esters
(Compounds 7 and 8) by monoclonal antibody P3 6D4. A PerkinElmer lambda 4
spectrophotometer, equipped with thermostatted cell holder, was used to
measure absorption changes at 245 nm. Cells containing the substrate at
concentrations of 0.5 to 50 micromolar in phosphate buffer (50 mM, pH 8.0
were preequilibrated at 25 degrees C. The concentration of active IgG in
stock solution was found by reacting with the coumarin ester (Compound 5)
and measuring the yield of hydroxycoumarin by fluorescence. The kinetic
run was initiated by addition of an aliquot of the antibody stock solutio
(in 50 mM phosphate buffer, pH 8.0) calculated to give 100 nM IgG. The
mixture was allowed to equilibrate for 2 to 3 minutes and the rate was
then measured during the subsequent 10 minutes. The absorption change for
complete hydrolysis was determined by treatment with esterase. Kinetic
parameters were obtained from L ineweaverBurk plots (see FIG. 4).
Inhibition constants were determined from a plot of the slopes with at
least four inhibitor concentrations of Compound 3. The data were analyzed

[3] = test system: monoclonal antibody P3 6D4; experiment: Ester hydrolysis by monoclonal antibody P3 6D4, HPLC; assay type: biochemical, mouse; conditions: for t1/2 Antibody (P3 6D4): 5 micromolar substrate, 0.1 micromolar antibody, 50 mM phosphate pH 8.0, 25 C
Description: FIG. 3 illustrates the rate of hydrolysis of a carboxylic ester (Compound 7) determined by HPLC under the conditions described in Table 1 (50 mM phosphate buffer at pH 8.0 and 23 degrees C). ( ) Uncatalyzed (background)rate of hydrolysis. (.quadrature.) Effect of 0.5 micromolar non-specific monoclonal IgG. ( ) 0.1 Micromolar anti-Compound 4 monoclonal antibody from hybridoma P3 6D4. The superimposed curve represents a theoretical exponential decay which fits the data points.
as §1
(§2) The lack of spectroscopic distinction between such esters and their hydrolysis products recommended a chromatographic analysis of the process. Referring to FIG. 3, a mixture of Compound 7 (5 uM) and the monoclonal antibody from hybridoma P3 6D4 (0.1 uM) in phosphate buffer (50 mM, pH 8.0) was analyzed over time by high performance liquid chromatography (HPLC). The accelerated hydrolysis of the ester was apparent from the decrease of its peak and the concurrent increase in two new peaks that correspond with the expected products. Under these conditions, the ester is completely consumed in 60-80 minutes during which time the background rate accounts for about 12 to 16 percent hydrolysis. The chromatographic profile is the same as that produced by treatment with hog liver esterase.
(§3) *Hydrolysis of carboxylic esters by monoclonal antibody (from hybridoma P
(§4) 6D4) and by hog liver esterase (Sigma Chemical Co., St. Louis, MO, EC
(§5) 3.1.1.1) determined by HPLC on an analytical RPC18 column (Vydac 218TP54)
(§6) with isocratic elution [acetonitrile: water plus 0.1 percent
(§7) trifluoroacetic acid; (35:65)] at a flow rate of 1.0 ml/min and the
(§8) detector set at 245 nm. The initial substrate concentration was 5
(§9) micromolar and that the internal standard (acetophenone) was 10 microm
(§10) olar in 50 mM phosphate buffer at pH 8.0. The retention times (minutes)
(§11) were as follows: acetophenone, 5.0; Compound 7, 8.3; Compound 8, 6.7;
(§12) Compound 9, 4.1; Compound 10, 11.1 (40 percent acetonitrile elution);
(§13) Compound 11, 8.2. The antibody concentration was 15 micrograms/ml (0.1
(§14) micromolar) and that of esterase was 5.5 micrograms/ml. The reaction
(§15) mixtures were kept at 25 degrees C. and aliquots were analyzed at
(§16) intervals of 2 to 20 minutes. Three or more determinations were used to
(§17) plot a curve from which the halflife of the reaction is estimated (see

hog liver esterase = assay type: biochemical; conditions: pig, 5 µM, pH 8
Description: as §2, §3, §4, §5, §6, §7, §8, §9, §10, §11, §12, §13, §14, §15, §16, §17

[4] = Spontaneous (uncatalyzed, background) hydrolysis; assay type: physicochemical; conditions: spectrophotometric at 245 nm, initial rates at five ester concentrations; figure = k × 10^5
Method in brief: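 Background (uncatalyzed) hydrolysis of ester substrates measured in 50 mM phosphate buffer, pH 8.0, without antibody, as percentage of reactant consumed over the stated period. Quantified by C18 HPLC (acetonitrile/water with 0.1% trichloroacetic acid); Compounds 5 and 20 followed by fluorescence (ex 355 nm, em 455 nm).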

Solubility = assay type: physicochemical; conditions: aqueous buffer
[5] = test system: monoclonal receptor P3 6D4; experiment: Stoichiometric transacylation reaction of monoclonal receptor P3 6D4 with coumarin ester Compound 5 (fluorescence) and its inhibition/inactivation; assay type: biochemical, mouse
Method in brief: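 Antibody P3 6D4 (100 nM final) reacted at 23 °C with coumarin ester 5 in Tris-HCl or phosphate buffer (50 mM, pH 4–9), followed by fluorescence (ex 355/em 455 nm). Initial rates corrected for spontaneous hydrolysis; kinetic parameters from hyperbolic and double-reciprocal fits, Ki from Lineweaver-Burk with ≥5 inhibitor concentrations.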

[6] = leaving group alcohol; source not stated; cited from earlier work

| Compound | t1/2 Antibody (P3 6D4) [3] [min] | t1/2 Esterase (hog liver esterase) [min] | Km [2] [µM] | Vmax [2] [µM/min] | kcat [2] [s⁻¹] | kcat/kuncat [2] | acceleration above the background rate [2] | further results |
| --- | --- | --- | --- | --- | --- | --- | --- | --- |
| CCOP(=O)(Cc1ccc(NC(=O)C(F)(F)F)cc1)Oc1ccc(NC(C)=O)cc1CNC(=O)c1cccc(C(=O)OC)n1 (stereo not shown) [Compound 3] | – | – | – | – | – | – | – | Kd [1]: 10000 to 100000 nM; Ki ([2]; inhibitor Compound 3, substrate Compound 7 (table line 7)): 160 nM; Ki ([2]; inhibitor Compound 3, substrate Compound 8 (table line 8)): 65 nM |
| CC(=O)Nc1ccc(OC(=O)Cc2ccc(NC(=O)C(F)(F)F)cc2)cc1 [Compound 7] | 16 | 4 | 1.9 | 0.132 | 0.027 | 960 | about 960 fold | time to complete consumption of ester ([3]; 5 uM Compound 7, 0.1 uM antibody P3 6D4, 50 mM phosphate pH 8.0): 60 to 80 min; kuncat [4]: 280000 s⁻¹; solubility (Solubility; read-out: concentration above which solutions become slightly turbid): 15 µM (≈ 5.7 µg/mL); turn over of receptor with substrate ([2]; without noticeable inactivation): several hundred fold |
| O=C(O)CCC(=O)Nc1ccc(OC(=O)Cc2ccc(NC(=O)C(F)(F)F)cc2)cc1 [Compound 8] | 60 | 52 | 0.62 | 0.06 | 0.008 | 210 | about 200 fold | accelerated hydrolysis by P3 6D4 (substrate acceptance) ([3]; pH 8.0): somewhat slower rate; inactivation of receptor [5]: loss of activity; solubility (Solubility; 50 mm phosphate buffer, phosphate buffer 50 mM, pH 8.0, read-out: soluble up to concentration): ≥ 100 µM |
| Oc1cccc2ccccc12 [alpha-naphthol] | – | – | – | – | – | – | – | pKa [6]: about 9.3 |
